Reference: publication PMC8619046, “ABCB1 and ABCG2 Control Brain Accumulation and Intestinal Disposition of the Novel ROS1/TRK/ALK Inhibitor Repotrectinib, While OATP1A/1B, ABCG2, and CYP3A Limit Its Oral Availability” (Pharmaceutics, 2021)
Read-outs that look alike come from different tables or passages of the source.

Legend:
Type in all cases: in vitro ADME
[1] = molecular target: T1, human ABCB1 (Homo sapiens, UniProt P08183); test: Transepithelial transport, MDCK-II cells transduced with hABCB1; details: MDCK-MDR1, pH 7.4, MDCK-II hABCB1, 5 µM, no inhibitor, read-out: efflux transport ratio r
T1 construct: expressed in transfected cells; host or cells: MDCK-II cells stably transduced with hABCB1 cDNA (made in the authors' institute)
T1 sequence (P08183 whole entry): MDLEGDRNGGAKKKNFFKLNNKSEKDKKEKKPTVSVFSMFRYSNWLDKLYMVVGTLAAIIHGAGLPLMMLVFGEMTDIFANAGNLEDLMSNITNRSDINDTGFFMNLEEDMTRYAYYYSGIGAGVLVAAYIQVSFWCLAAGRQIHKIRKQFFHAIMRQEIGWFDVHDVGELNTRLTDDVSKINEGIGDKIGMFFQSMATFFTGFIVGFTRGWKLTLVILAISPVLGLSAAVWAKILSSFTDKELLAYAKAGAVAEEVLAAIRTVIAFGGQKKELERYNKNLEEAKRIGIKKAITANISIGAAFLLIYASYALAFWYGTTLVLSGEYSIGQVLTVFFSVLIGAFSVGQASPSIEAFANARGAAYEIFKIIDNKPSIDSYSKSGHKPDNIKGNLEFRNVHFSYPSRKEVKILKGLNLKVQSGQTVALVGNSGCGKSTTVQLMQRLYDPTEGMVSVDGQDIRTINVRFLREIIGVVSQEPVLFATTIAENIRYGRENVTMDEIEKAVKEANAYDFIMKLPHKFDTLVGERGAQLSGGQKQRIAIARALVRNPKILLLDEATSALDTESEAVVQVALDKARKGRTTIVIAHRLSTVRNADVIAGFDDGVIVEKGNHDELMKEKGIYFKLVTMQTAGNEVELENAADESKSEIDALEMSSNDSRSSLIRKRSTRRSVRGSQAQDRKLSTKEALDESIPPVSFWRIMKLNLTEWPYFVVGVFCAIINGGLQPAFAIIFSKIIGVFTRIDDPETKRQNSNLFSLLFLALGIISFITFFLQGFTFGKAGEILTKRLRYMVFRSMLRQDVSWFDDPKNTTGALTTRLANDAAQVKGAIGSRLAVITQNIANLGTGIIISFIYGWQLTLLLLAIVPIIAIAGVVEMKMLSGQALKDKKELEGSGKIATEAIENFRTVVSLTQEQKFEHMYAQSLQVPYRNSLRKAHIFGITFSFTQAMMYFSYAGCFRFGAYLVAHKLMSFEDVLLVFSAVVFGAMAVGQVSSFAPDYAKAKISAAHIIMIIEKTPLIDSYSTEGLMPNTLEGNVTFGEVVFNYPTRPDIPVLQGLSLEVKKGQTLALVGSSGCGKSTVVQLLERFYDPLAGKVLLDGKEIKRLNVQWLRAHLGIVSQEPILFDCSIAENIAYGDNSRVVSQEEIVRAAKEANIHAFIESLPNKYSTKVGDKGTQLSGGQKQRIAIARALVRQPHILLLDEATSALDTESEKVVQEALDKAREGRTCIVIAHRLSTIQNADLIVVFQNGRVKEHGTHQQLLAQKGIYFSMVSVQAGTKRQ
Description: (§1) Polarized Madin-Darby Canine Kidney (MDCK-II) cells (ECACC 00062107) stably transduced with either human (h) ABCB1, hABCG2 or mouse (m) Abcg2 cDNA were generated in our institute between 1995–2005. The proper identity and functionality, such as highly characteristic growth and drug transporter properties, including inhibitor sensitivity, were regularly checked in these epithelial cells. Mycoplasma routinely tested negative in these cells. The passage number was 10–15 when used in the transport experiments.
(§2) Transepithelial transport experiments were performed as previously described with 12-well plates (Transwell 3414, Corning Inc., Kennebunk, ME, USA) containing microporous polycarbonate membrane filters (3.0 µm pore size, 12 mm diameter). […]
(§3) After pre-incubation with 5 µM zosuquidar (ABCB1 inhibitor) and/or 5 µM Ko143 (ABCG2/Abcg2 inhibitor) in both compartments (when appropriate) for 1 h, the transport phase was initiated (t = 0) by replacing the medium in apical and basolateral compartments with fresh DMEM with 10% FBS and the appropriate inhibitor(s), and repotrectinib at 5 µM in the donor compartment. […] The active transport ratio r, calculated by dividing the amount of apically directed drug transport by basolaterally directed drug translocation after 8 h, was used to assess active transport of repotrectinib.

[2] = system: T2, human ABCB1; test: as above; details: MDCK-MDR1, pH 7.4, with zosuquidar 5 µM, MDCK-II hABCB1, 5 µM, + zosuquidar 5 µM, read-out: efflux transport ratio r
T2 construct: expressed in transfected cells; host or cells: MDCK-II cells stably transduced with hABCB1 cDNA (made in the authors' institute)
Description: as §1, §2, §3

[3] = system: T3, human ABCG2; test: Transepithelial transport, MDCK-II cells transduced with hABCG2; details: MDCK-II hABCG2, 5 µM, read-out: efflux transport ratio r
T3 construct: expressed in transfected cells; host or cells: MDCK-II cells stably transduced with hABCG2 cDNA (made in the authors' institute)
Description: as §1, §2, §3

[4] = system: T4, mouse Abcg2; test: Transepithelial transport, MDCK-II cells transduced with mAbcg2; details: MDCK-II mAbcg2, 5 µM, read-out: efflux transport ratio r
T4 construct: expressed in transfected cells; host or cells: MDCK-II cells stably transduced with mAbcg2 cDNA (made in the authors' institute)
Description: as §1, §2, §3

[5] = pH 7.4, with zosuquidar 5 µM + Ko143 5 µM, + zosuquidar 5 µM + Ko143 5 µM
[6] = pH 7.4, with zosuquidar 5 µM, + zosuquidar 5 µM

C[C@H]1CNC(=O)c2cnn3ccc(nc23)N[C@H](C)c2cc(F)ccc2O1 [repotrectinib]
efflux ratio at 8 h, 5 µM [1]: 13.5
efflux ratio at 8 h, 5 µM [2]: 1.1
efflux ratio at 8 h, 5 µM [3, 5]: 0.95
efflux ratio at 8 h, 5 µM [3, 6]: 5.6
efflux ratio at 8 h, 5 µM [4, 5]: 1.1
efflux ratio at 8 h, 5 µM [4, 6]: 40
